{"source": "paper PMC12510010", "about": "(The Journal of Biological Chemistry, 2025)", "assay_type_in_all_cases": "cell-based", "key": {"[1]": {"tested_on": "MRP4 (cGMP in T-84 cells)", "assay": "Ratiometric FRET of live cGMP production with sensor cygnet 2.1", "settings": "STc (100 nm) + MK571 (10 μM), vs STc alone, t test p = 0.0481", "procedure": "(§1) Figure 4 GCC and MRP4 are functionally coupled in the intestinal epithelial cells. A, dot-blot analysis of GST-NHERF1-4 binding with the C-terminal 50 amino acids of MRP4 (MRP4C50) that contains the C-terminal PDZ-domain binding motif ETALCOOH. GST was used as a negative control. 2 and 20 ng of purified MRP4C50 were also immobilized on the nitrocellulose membrane as positive controls for detection. The detection of the protein interaction was performed using S-protein HRP Conjugate. B, the macromolecular complex formation assay between MRP4C50 and GCCC50via NHERF3. […] D, bar-graph represents the amount of cGMP measured using ELISA from total cell lysate and the supernatant (medium) from T-84 cells treated with ± STc (1 μM, 30 min) ± MK571 (10 μM, 30 min). n represents each data point with n = 6 to 8 obtained from three independent experiments. […] E, bar-graph represents the quantitation of fluid secretion in the mouse enteroids treated with ± STc (1 μM, 30 min) ± MK571 (10 μM, 30 min). Fluid secretion in the mouse enteroids calculated from n = 8 to 25 organoids per condition. […] F, bar-graph represents the quantitation of fluid secretion in the human enteroids treated with ± STc (1 μM, 30 min) ± MK571 (10 μM, 30 min). Fluid secretion in the human enteroids calculated from n = 12 to 17 organoids per condition. […]"}, "[2]": {"tested_on": "MRP4 (cGMP efflux, T-84 cells)", "assay": "Extracellular cGMP (ELISA), T-84 cells", "settings": "STc (1 μM, 30 min) + MK571 (10 μM, 30 min), n = 6 to 8, three independent experiments", "procedure": "as §1"}, "[3]": {"tested_on": "MRP4; fluid secretion in human enteroids", "assay": "STc-stimulated fluid secretion in human enteroids with MK571", "settings": "STc (1 μM, 30 min), MK571 (10 μM, 30 min), n = 12 to 17 organoids", "procedure": "as §1\n(§2) Intestinal crypt isolation and quantitation of fluid secretion in enteroids […]"}, "[4]": {"tested_on": "MRP4; fluid secretion in mouse enteroids", "assay": "STc-stimulated fluid secretion in mouse enteroids with MK571", "settings": "STc (1 μM, 30 min), MK571 (10 μM, 30 min), n = 8 to 25 organoids", "procedure": "as §1, §2"}}}
{"compound": "CN(C)C(=O)CCSC(SCCC(=O)O)c1cccc(/C=C/c2ccc3ccc(Cl)cc3n2)c1", "note": "(stereo not shown) [MK571]", "values": [{"measurement": "cGMP accumulation (ratiometric FRET)", "setting": "[1]", "value": "synergistic accumulation of cGMP"}, {"measurement": "cGMP in the cell supernatant", "setting": "[2]", "value": "reduced cGMP concentrations (in the cell supernatant)"}, {"measurement": "STc-stimulated fluid secretion with MK571", "setting": "[3]", "value": "enhanced STc-stimulated fluid secretion"}, {"measurement": "STc-stimulated fluid secretion with MK571", "setting": "[4]", "value": "enhanced STc-stimulated fluid secretion"}]}
